Reference: patent US8247211B2, “Glycopeptide antibiotics” (American Cyanamid Company, priority 2001, dated 2012)
≈ marks a conversion by molar mass, not a printed value.

Columns and labels:
Test in all cases: In vitro antibacterial evaluation: minimum inhibitory concentration (MIC), broth dilution method
Format in all cases: cell-based
[1] = test system: Enterococcus sp.; details: 18 hours at 35° C.
Summary of the method: (§1)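 An MIC is reported for each organism as the least concentration giving inhibition, using broth dilution over 64-0.06 μg/mL with a 5×10^5 CFU/mL inoculum.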

[2] = test system: Streptococcus sp.; details: 18 hours at 35° C.
Summary of the method: as §1

[3] = test system: Escherichia coli; details: 18 hours at 35° C.
Summary of the method: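 First, organisms are seeded at 5×10^5 CFU/mL into Muller-Hinton II […]. Next, antibiotic is applied across 64-0.06 μg/mL by broth dilution (NCCLS M7-A2). Finally, the lowest inhibitory concentration is recorded as MIC.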

[4] = test system: Staphylococcus sp.
Summary of the method: as §1

[5] = broth dilution, inoculum 5×10^5 CFU/mL

CC(c1ccccc1)C1NC(=O)CNC(=O)C(CO)NC(=O)C(C(O)C2CNC(=N)N2C2OC(CO)C(O)C(O)C2O)NC(=O)C(C(O)C2CNC(=N)N2)NC(=O)C(Cc2ccc(OC3OC(CO)C(OC4OC5COC6(CC(C)(C)CC(C)(C)C6)OC5C(O)C4O)C(O)C3O)cc2)NC1=O (stereo not drawn) [Example 207, Cyclo[glycyl-β-methylphenylalanyl-O-[4-O-[4,6-O-(3,3,5,5-tetramethylcyclohexylidene)hexopyranosyl]hexopyranosyl]tyrosyl-3-(2-iminoimidazolidin-4-yl)seryl-3-(3-hexopyranosyl-2-iminoimidazolidin-4-yl)serylseryl]]
MIC Enterococcus avium (GC 4558) ([1]; Enterococcus avium (GC 4558)): 1 µg/mL (≈ 0.699 µM)
MIC Enterococcus faecalis (ATCC 29212) ([1]; Enterococcus faecalis (ATCC 29212)): 4 µg/mL (≈ 2.79 µM)
MIC Enterococcus faecalis (GC 2242) ([1]; Enterococcus faecalis (GC 2242)): 4 µg/mL (≈ 2.79 µM)
MIC Enterococcus faecalis (GC 2691) ([1]; Enterococcus faecalis (GC 2691)): 2 µg/mL (≈ 1.4 µM)
MIC Enterococcus faecalis (GC 3059) ([1]; Enterococcus faecalis (GC 3059)): 2 µg/mL (≈ 1.4 µM)
MIC Enterococcus faecalis (GC 4552) ([1]; Enterococcus faecalis (GC 4552)): 4 µg/mL (≈ 2.79 µM)
MIC Enterococcus faecalis (GC 4553) ([1]; Enterococcus faecalis (GC 4553)): 4 µg/mL (≈ 2.79 µM)
MIC Enterococcus faecalis (GC 4554) ([1]; Enterococcus faecalis (GC 4554)): 4 µg/mL (≈ 2.79 µM)
MIC Enterococcus faecalis (GC 6189) ([1]; Enterococcus faecalis (GC 6189)): 2 µg/mL (≈ 1.4 µM)
MIC Enterococcus faecium (GC 2243) ([1]; Enterococcus faecium (GC 2243)): 4 µg/mL (≈ 2.79 µM)
MIC Enterococcus faecium (GC 4556) ([1]; Enterococcus faecium (GC 4556)): 4 µg/mL (≈ 2.79 µM)
MIC Enterococcus faecium (GC 4557) ([1]; Enterococcus faecium (GC 4557)): 2 µg/mL (≈ 1.4 µM)
MIC Enterococcus avium (GC 4558) [1, 5]: 1 µg/mL (≈ 0.699 µM)
MIC Enterococcus faecalis (ATCC 29212) [1, 5]: 4 µg/mL (≈ 2.79 µM)
MIC Enterococcus faecalis (GC 2242) [1, 5]: 4 µg/mL (≈ 2.79 µM)
MIC Enterococcus faecalis (GC 2691) [1, 5]: 2 µg/mL (≈ 1.4 µM)
MIC Enterococcus faecalis (GC 3059) [1, 5]: 2 µg/mL (≈ 1.4 µM)
MIC Enterococcus faecalis (GC 4552) [1, 5]: 4 µg/mL (≈ 2.79 µM)
MIC Enterococcus faecalis (GC 4553) [1, 5]: 4 µg/mL (≈ 2.79 µM)
MIC Enterococcus faecalis (GC 4554) [1, 5]: 4 µg/mL (≈ 2.79 µM)
MIC Enterococcus faecalis (GC 6189) [1, 5]: 2 µg/mL (≈ 1.4 µM)
MIC Enterococcus faecium (GC 2243) [1, 5]: 4 µg/mL (≈ 2.79 µM)
MIC Enterococcus faecium (GC 4556) [1, 5]: 4 µg/mL (≈ 2.79 µM)
MIC Enterococcus faecium (GC 4557) [1, 5]: 2 µg/mL (≈ 1.4 µM)
MIC Streptococcus agalactiae (GC 4564) ([2]; Streptococcus agalactiae (GC 4564)): <0.12 µg/mL
MIC Streptococcus pneumoniae (ATCC 6301) ([2]; Streptococcus pneumoniae (ATCC 6301)): <0.12 µg/mL
MIC Streptococcus pneumoniae (GC 1894) ([2]; Streptococcus pneumoniae (GC 1894)): <0.12 µg/mL
MIC Streptococcus pneumoniae (GC 4565) ([2]; Streptococcus pneumoniae (GC 4565)): <0.12 µg/mL
MIC Streptococcus pyogenes (GC 4563) ([2]; Streptococcus pyogenes (GC 4563)): <0.12 µg/mL
MIC Streptococcus agalactiae (GC 4564) [2, 5]: <0.12 µg/mL
MIC Streptococcus pneumoniae (ATCC 6301) [2, 5]: <0.12 µg/mL
MIC Streptococcus pneumoniae (GC 1894) [2, 5]: <0.12 µg/mL
MIC Streptococcus pneumoniae (GC 4565) [2, 5]: <0.12 µg/mL
MIC Streptococcus pyogenes (GC 4563) [2, 5]: <0.12 µg/mL
MIC Escherichia coli (ATCC 25922) ([3]; Escherichia coli (ATCC 25922)): 32 µg/mL (≈ 22.4 µM)
MIC Escherichia coli (GC 4559) ([3]; Escherichia coli (GC 4559)): 64 µg/mL (≈ 44.7 µM)
MIC Escherichia coli (GC 4560) ([3]; Escherichia coli (GC 4560)): 2 µg/mL (≈ 1.4 µM)
MIC Staphylococcus aureus (ATCC 29213) ([4]; strain ATCC 29213): 1 µg/mL (≈ 0.699 µM)
MIC Staphylococcus aureus (GC 1131) ([4]; strain GC 1131): 2 µg/mL (≈ 1.4 µM)
MIC Staphylococcus aureus (GC 3051) ([4]; strain GC 3051): 2 µg/mL (≈ 1.4 µM)
MIC Staphylococcus aureus (GC 3053) ([4]; strain GC 3053): 1 µg/mL (≈ 0.699 µM)
MIC Staphylococcus aureus (GC 4541) ([4]; strain GC 4541): 1 µg/mL (≈ 0.699 µM)
MIC Staphylococcus aureus (GC 4542) ([4]; strain GC 4542): 1 µg/mL (≈ 0.699 µM)
MIC Staphylococcus aureus-SMITH (GC 4543) ([4]; strain GC 4543): 1 µg/mL (≈ 0.699 µM)
MIC Staphylococcus aureus (GC 4544) ([4]; strain GC 4544): 1 µg/mL (≈ 0.699 µM)
MIC Staphylococcus aureus (GC 4545) ([4]; strain GC 4545): 1 µg/mL (≈ 0.699 µM)
MIC Staphylococcus haemolyticus (GC 4546) ([4]; strain GC 4546): 1 µg/mL (≈ 0.699 µM)
MIC Coagulase Negative Staphylococcus (GC 4547) ([4]; strain GC 4547): 1 µg/mL (≈ 0.699 µM)
MIC Coagulase Negative Staphylococcus (GC 4548) ([4]; strain GC 4548): 0.5 µg/mL (≈ 0.349 µM)
MIC Coagulase Negative Staphylococcus (GC 4549) ([4]; strain GC 4549): 0.5 µg/mL (≈ 0.349 µM)
MIC Coagulase Negative Staphylococcus (GC 4551) ([4]; strain GC 4551): 4 µg/mL (≈ 2.79 µM)
